In patent US7342012B2, “Inhibitors of αLβ2 mediated cell adhesion” (Mitsubishi Tanabe Pharma Corporation, priority 1999, dated 2008):
Where a name gives a salt, the structure may show the parent alone.

SMILES | melting point
[N-]=[N+]=N[C@@H]1CN2C(=O)N(c3cc(Cl)nc(Cl)c3)C(=O)[C@@]2(Cc2ccc(OC(F)(F)F)cc2)C1 [Example 62, (5R,7S)-5-[4-(Trifluoromethoxy)benzyl]-3-(2,6-dichloro-4-pyridyl)-7-azido-1,3-diazabicyclo[3.3.0]octane-2,4-dione] | 139.9 °C
CS(=O)(=O)c1ccc(CC23CCCN2C(=O)N(c2cc(Cl)cc(Cl)c2)C3=O)cc1 (stereo not drawn) [Example 190, 5-(4-Methylsulfonylbenzyl)-3-(3,5-dichlorophenyl)-1,3-diazabicyclo[3.3.0]octane-2,4-dione] | 80.3 °C
N#Cc1ccc(CC23CCCN2C(=O)N(Cc2cc(Cl)cc(Cl)c2)C3=O)cc1 (stereo not drawn) [Example 106, 5-(4-Cyanobenzyl)-3-(3,5-dichlorobenzyl)-1,3-diazabicyclo[3.3.0]octane-2,4-dione] | 124 °C
COC(=O)/C=C/c1cccc(-c2ccc(CC34CCCN3C(=O)N(c3cc(Cl)cc(Cl)c3)C4=O)cc2)c1 (stereo not drawn) [Example 224, (E)-5-[4-[3-(2-Methoxycarbonyl)vinylphenyl]benzyl]-3-(3,5-dichlorophenyl)-1,3-diazabicyclo[3.3.0]octane-2,4-dione] | 71.3 °C
COc1c(Cl)cc(N2C(=O)N3CCCC3(Cc3ccc(C#N)cc3)C2=O)cc1Cl (stereo not drawn) [Example 139, 5-(4-Cyanobenzyl)-3-(3,5-dichloro-4-methoxyphenyl)-1,3-diazabicyclo[3.3.0]octane-2,4-dione] | 95.1 °C
COC(=O)CCN1CCCC2(Cc3ccc(Br)cc3)C(=O)N(c3cc(Cl)nc(Cl)c3)C(=O)N12 (stereo not drawn) [Example 103, 6-(4-Bromobenzyl)-8-(2,6-dichloro-4-pyridyl)-2-[2-(methoxycarbonyl)ethyl]-1,2,8-triazabicyclo[4.3.0]nonane-7,9-dione] | 157 °C
O=C(O)c1cc(C(=O)O)cc(N2C(=O)N3CCCC3(Cc3ccc(Br)cc3)C2=O)c1 (stereo not drawn) [Example 236] | 259 °C (dec.)
CCN(CC)CCN1CCN2C(=O)N(c3cc(Cl)cc(Cl)c3)C(=O)C2(Cc2ccc(Br)cc2)C1 (stereo not drawn) (as salt: HCl) [Example 32, 4-[2-(Diethylamino)ethyl]-6-(4-bromobenzyl)-8-(3,5-dichlorophenyl)-1,4,8-triazabicyclo[4.3.0]nonane-7,9-dione] | 223 °C
CC(=O)O[C@@H]1CN2C(=O)N(c3cc(Cl)cc(Cl)c3)C(=O)[C@]2(Cc2ccc(Br)cc2)C1 [Example 4, (5S,7S)-5-(4-Bromobenzyl)-3-(3,5-dichlorophenyl)-7-acetoxy-1,3-diazabicyclo[3.3.0]octane-2,4-dione] | 149.8 °C
O=C1N(c2cc(Cl)nc(Cl)c2)C(=O)[C@]2(Cc3ccc(OC(F)(F)F)cc3)C[C@@H](O)CN12 [Example 59, (5S,7R)-5-[4-(Trifluoromethoxy)benzyl]-3-(2,6-dichloro-4-pyridyl)-7-hydroxy-1,3-diazabicyclo[3.3.0]octane-2,4-dione] | 162.3 °C
CC(C)(C)OC(=O)c1c(Cl)cc(N2C(=O)N3CCCC3(Cc3ccc(Br)cc3)C2=O)cc1Cl (stereo not drawn) [Example 225, 5-(4-Bromobenzyl)-3-[3,5-dichloro-4-(t-butoxycarbonyl)phenyl]-1,3-diazabicyclo[3.3.0]octane-2,4-dione] | 109 to 110 °C
C[S+]([O-])c1ccc(CC23CCCN2C(=O)N(c2cc(Cl)cc(Cl)c2)C3=O)cc1 (stereo not drawn) [Example 189, 5-(4-Methylsulfinylbenzyl)-3-(3,5-dichlorophenyl)-1,3-diazabicyclo[3.3.0]octane-2,4-dione] | 71.2 °C
O=C1N(c2cc(Cl)cc(Cl)c2)C(=O)[C@]2(Cc3ccc(Br)cc3)C[C@H](O)CN12 [Example 5, (5S,7S)-5-(4-Bromobenzyl)-3-(3,5-dichlorophenyl)-7-hydroxy-1,3-diazabicyclo[3.3.0]octane-2,4-dione] | 88.3 °C
N#Cc1ccc(C[C@]23C[C@@H](O)CN2C(=O)N(c2cc(Cl)nc(Cl)c2)C3=O)cc1 [Example 60, (5R,7R)-5-(4-Cyanobenzyl)-3-(2,6-dichloro-4-pyridyl)-7-hydroxy-1,3-diazabicyclo[3.3.0]octane-2,4-dione] | 97.6 °C
N#Cc1cccc(N2C(=O)N3CCCC3(Cc3ccc(Br)cc3)C2=O)c1 (stereo not drawn) [Example 234] | 241 °C
O=C1N(c2cccc(F)c2)C(=O)C2(Cc3ccc(Br)cc3)CCCN12 (stereo not drawn) [Example 238] | 120.9 °C
N[C@@H]1CN2C(=O)N(c3cc(Cl)cc(Cl)c3)C(=O)[C@@]2(Cc2ccc(OC(F)(F)F)cc2)C1 [Example 300, (5R, 7S)-5-[4-(Trifluoromethoxy)benzyl]-3-(3,5-dichlorophenyl)-7-amino-1,3-diazabicyclo[3.3.0]octane-2,4-dione] | 43.3 °C
NC(=O)C1CN2C(=O)N(c3cc(Cl)cc(Cl)c3)C(=O)C2(Cc2ccc(OC(F)(F)F)cc2)C1 (stereo not drawn) [Example 317] | 140.3 °C

Further lines, results first:

melting point | SMILES
73.5 °C | CN(C)CC(=O)N1CCN2C(=O)N(c3cc(Cl)cc(Cl)c3)C(=O)C2(Cc2ccc(Br)cc2)C1 (stereo not drawn) [Example 31, 4-[(Dimethylamino)acetyl]-6-(4-bromobenzyl)-8-(3,5-dichlorophenyl)-1,4,8-triazabicyclo[4.3.0]nonane-7,9-dione]
91 °C | CC(=O)N1CCCC2(Cc3ccc(Br)cc3)C(=O)N(c3cc(Cl)nc(Cl)c3)C(=O)N12 (stereo not drawn) [Example 101, 6-(4-Bromobenzyl)-8-(2,6-dichloro-4-pyridyl)-2-acetyl-1,2,8-triazabicyclo[4.3.0]nonane-7,9-dione]
123.9 °C | CC(=O)Nc1ccc(-c2ccc(CC34CCCN3C(=O)N(c3cc(Cl)cc(Cl)c3)C4=O)cc2)cc1 (stereo not drawn) [Example 116, 5-[4-(4-Acetylaminophenyl)benzyl]-3-(3,5-dichlorophenyl)-1,3-diazabicyclo[3.3.0]octane-2,4-dione]
104.9 °C | CS(=O)(=O)NCC(=O)N[C@@H]1CN2C(=O)N(c3cc(Cl)nc(Cl)c3)C(=O)[C@@]2(Cc2ccc(OC(F)(F)F)cc2)C1 [Example 253, (5R, 7S)-5-[4-(Trifluoromethoxy)benzyl]-3-(2,6-dichloro-4-pyridyl)-7-[(methansulfonylaminoacetyl)amino]-1,3-diazabicyclo[3.3.0]octane-2,4-dione]
66.5 °C | CC(O)c1cccc(-c2ccc(CC34CCCN3C(=O)N(c3cc(Cl)cc(Cl)c3)C4=O)cc2)c1 (stereo not drawn) [Example 223, 5-[4-[3-(!-Hydroxy)ethylphenyl]benzyl]-3-(3,5-dichlorophenyl)-1,3-diazabicyclo[3.3.0]octane-2,4-dione]
123.5 °C | NC1CN2C(=O)N(c3cc(Cl)nc(Cl)c3)C(=O)C2(Cc2ccc(OC(F)(F)F)cc2)C1 (stereo not drawn) [Example 281]
98 °C | CC(=O)Nc1cccc(-c2ccc(CC34CCCN3C(=O)N(c3cc(Cl)cc(Cl)c3)C4=O)cc2)c1 (stereo not drawn) [Example 119]
86.5 °C | O=C1CCCN1c1cccc(-c2ccc(CC34CCCN3C(=O)N(c3cc(Cl)cc(Cl)c3)C4=O)cc2)c1 (stereo not drawn) [Example 127, 5-[4-[3-(2-oxo-1-pyrrolidinyl)phenyl]benzyl]-3-(3,5-dichlorophenyl)-1,3-diazabicyclo[3.3.0]octane-2,4-dione]
100.9 °C (dec.) | N#Cc1ccc(CC23CN(C(=O)CCC(=O)O)CCN2C(=O)N(c2cc(Cl)nc(Cl)c2)C3=O)cc1 (stereo not drawn) [Example 163, 6-(4-Cyanobenzyl)-4-(3-carboxypropionyl)-8-(2,6-dichloro-4-pyridyl)-1,4,8-triazabicyclo[4.3.0]nonane-7,9-dione]
66.8 °C | CCCCC(=O)N[C@@H]1CN2C(=O)N(c3cc(Cl)nc(Cl)c3)C(=O)[C@@]2(Cc2ccc(OC(F)(F)F)cc2)C1 [Example 286, (5R, 7S)-5-[4-(Trifluoromethoxy)benzyl]-3-(2,6-dichloro-4-pyridyl)-7-valerylamino-1,3-diazabicyclo[3.3.0]octane-2,4-dione]
63.5 °C | O=C1N(c2cc(Cl)cc(Cl)c2)C(=O)C2(Cc3ccc([S+]([O-])C(F)(F)F)cc3)CCCN12 (stereo not drawn) [Example 310]
76.3 °C | O=C1N(c2cc(Cl)nc(Cl)c2)C(=O)C2(Cc3ccc(Br)cc3)CCCN12 (stereo not drawn) [Example 55, 3-(2,6-dichloro-4-pyridyl)-5-(4-bromobenzyl)-1,3-diazabicyclo[3.3.0]octane-2,4-dione]
72.1 °C | N#Cc1ccc(C(=O)C23CCCN2C(=O)N(c2cc(Cl)cc(Cl)c2)C3=O)cc1 (stereo not drawn) [Example 112, 5-(4-Cyanobenzoyl)-3-(3,5-dichlorophenyl)-1,3-diazabicyclo[3.3.0]octane-2,4-dione]
103 °C | N#Cc1ccc(CC23CCCN2C(=O)N(c2cc(Cl)c(N)c(Cl)c2)C3=O)cc1 (stereo not drawn) [Example 132, 5-(4-Cyanobenzyl)-3-(3,5-dichloro-4-aminophenyl)-1,3-diazabicyclo[3.3.0]octane-2,4-dione]
50.4 °C | O=C1N(c2cc(Cl)cc(Cl)c2)C(=O)C2(Cc3ccc(OC(F)(F)F)cc3)C[C@@H](O)CN12 (stereo in doubt) [Example 268, (5R, 7R)-5-[4-(Trifluoromethoxy)benzyl]-3-(3,5-dichlorophenyl)-7-hydroxy-1,3-diazabicyclo[3.3.0]octane-2,4-dione]
119.8 °C | COC(=O)N[C@@H]1CN2C(=O)N(c3cc(Cl)nc(Cl)c3)C(=O)[C@@]2(Cc2ccc(OC(F)(F)F)cc2)C1 [Example 250, (5R, 7S)-5-[4-(Trifluoromethoxy)benzyl]-3-(2,6-dichloro-4-pyridyl)-7-methoxycarbonylamino-1,3-diazabicyclo[3.3.0]octane-2,4-dione]
260.8 °C (dec.) | CN(C)CC(=O)N1CCN2C(=O)N(c3cc(Cl)nc(Cl)c3)C(=O)C2(Cc2ccc(C#N)cc2)C1 (stereo not drawn) (as salt: HCl) [Example 166, 6-(4-Cyanobenzyl)-4-dimethylaminoacetyl-8-(2,6-dichloro-4-pyridyl)-1,4,8-triazabicyclo[4.3.0]nonane-7,9-dione]
157 to 158 °C | O=C(O)CNC(=O)c1c(Cl)cc(N2C(=O)N3CCCC3(Cc3ccc(Br)cc3)C2=O)cc1Cl (stereo not drawn) [Example 227, 5-(4-Bromobenzyl)-3-[3,5-dichloro-4-(carboxymethylcarbamoyl)phenyl]-1,3-diazabicyclo[3.3.0]octane-2,4-dione]
